According to patent publication US4873236A, “Condensed diazepinones, processes for preparing them and pharmaceutical compositions containing these compounds” (Dr. Karl Thomae GmbH, priority 1986, dated 1989):
Where two headings read alike, the source gives them in different places.

What was measured:
Solubility in water = details: in words
[1] = target: T1, muscarinic receptors, submandibular gland (Rattus norvegicus, UniProt P08483); assay: Receptor bonding test in vitro, submandibular gland (displacement of 3H-N-methylscopolamine); format: binding, Sprague-Dawley rats; details: 0.3 nmolar 3H-NMS, 30° C., 45 min
T1 construct: After removal of the heart and submandibular gland; from tissue; host or cells: submandibular gland of male Sprague-Dawley rats, homogenate
T1 sequence (P08483 whole entry): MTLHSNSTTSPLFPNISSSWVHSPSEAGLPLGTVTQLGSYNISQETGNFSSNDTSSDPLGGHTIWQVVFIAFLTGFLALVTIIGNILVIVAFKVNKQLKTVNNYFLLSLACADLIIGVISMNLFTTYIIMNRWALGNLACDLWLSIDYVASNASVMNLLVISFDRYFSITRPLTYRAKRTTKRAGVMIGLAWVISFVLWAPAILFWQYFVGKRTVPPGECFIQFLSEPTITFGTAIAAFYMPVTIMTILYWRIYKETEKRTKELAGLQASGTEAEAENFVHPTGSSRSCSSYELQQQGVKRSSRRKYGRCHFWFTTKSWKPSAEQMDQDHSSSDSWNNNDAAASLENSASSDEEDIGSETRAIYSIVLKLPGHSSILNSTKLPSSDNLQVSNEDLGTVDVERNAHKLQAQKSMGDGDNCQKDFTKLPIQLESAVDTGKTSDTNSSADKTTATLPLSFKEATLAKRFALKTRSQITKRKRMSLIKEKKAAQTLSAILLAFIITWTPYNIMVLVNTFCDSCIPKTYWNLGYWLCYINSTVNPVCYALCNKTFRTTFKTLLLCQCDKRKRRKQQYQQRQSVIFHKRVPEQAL

[2] = target: T2, muscarinic receptors, lachrymal glands (Rattus norvegicus, UniProt P08483); assay: Receptor bonding test in vivo, lachrymal glands (3H-NMS); design: species or system female rats; details: iv, 0.5 h, read-out: ID50 Lachrymal glands
T2 construct: from tissue; host or cells: lachrymal glands of female rats, labelled in vivo
T2 sequence (P08483 whole entry): as above
Procedure: (§1) For these experiments, female rats with a body weight of about 200 g were used. Before the start of the test the animals were anaesthetised with a dosage of 1.25 g/kg of urethane. The animals were each given the prescribed dosage of test substance by intravenous injection. After 15 minutes, 113 ng/kg of ^3 H-N-methylscopolamine (^3 H-NMS) were administered by the same route. After another 15 minutes the animals were killed and the heart, bronchi and lachrymal glands were removed. These organs were dissolved in Soluene R and the radioactivity was determined. The measurements were assumed to be total bonding. […] ID50 values were determined for the individual organs using these tests.

[3] = target: T3, M1 (rise in blood pressure by McN-A-343) (Rattus norvegicus, UniProt P08482); assay: M1/M2 selectivity in the rat: inhibition of McN-A-343 blood pressure increase (M1); format: in vivo, male THOM rats; details: iv, 5 min
T3 construct: from tissue
T3 sequence (P08482 1-460): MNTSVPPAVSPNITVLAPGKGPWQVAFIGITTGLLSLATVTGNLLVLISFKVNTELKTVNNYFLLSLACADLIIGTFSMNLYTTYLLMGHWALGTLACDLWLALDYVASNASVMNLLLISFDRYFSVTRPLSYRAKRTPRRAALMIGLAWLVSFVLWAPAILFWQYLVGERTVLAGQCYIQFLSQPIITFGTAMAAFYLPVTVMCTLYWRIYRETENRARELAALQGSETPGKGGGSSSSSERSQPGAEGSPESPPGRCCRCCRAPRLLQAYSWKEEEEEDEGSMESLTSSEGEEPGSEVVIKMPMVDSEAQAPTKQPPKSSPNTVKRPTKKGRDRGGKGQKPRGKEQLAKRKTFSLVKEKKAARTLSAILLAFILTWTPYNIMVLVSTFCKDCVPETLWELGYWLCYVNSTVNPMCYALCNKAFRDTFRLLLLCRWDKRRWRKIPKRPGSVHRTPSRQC

[4] = target: T4, muscarinic receptors of the atrium (Cavia porcellus, UniProt H0VRN8); assay: Dissociation constants (KB) on spontaneously beating right atrium, methacholine antagonism; design: species or system guinea pig
T4 construct: In the isolated, spontaneously beating right atrium; from tissue; host or cells: isolated right atrium of guinea pig
T4 sequence (H0VRN8 1-466): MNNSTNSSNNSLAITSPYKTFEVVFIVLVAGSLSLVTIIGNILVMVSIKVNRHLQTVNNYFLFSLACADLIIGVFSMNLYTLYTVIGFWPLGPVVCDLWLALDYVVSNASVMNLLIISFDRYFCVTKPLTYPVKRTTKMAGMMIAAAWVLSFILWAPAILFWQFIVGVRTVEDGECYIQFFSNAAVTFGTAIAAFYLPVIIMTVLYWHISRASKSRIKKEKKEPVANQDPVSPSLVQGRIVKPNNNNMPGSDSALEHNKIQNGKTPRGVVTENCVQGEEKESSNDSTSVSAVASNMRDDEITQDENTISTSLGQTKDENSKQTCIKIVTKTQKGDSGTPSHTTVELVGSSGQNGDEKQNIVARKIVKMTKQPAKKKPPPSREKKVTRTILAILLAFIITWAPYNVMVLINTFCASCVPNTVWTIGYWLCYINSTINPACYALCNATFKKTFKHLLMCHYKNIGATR
Procedure: Dissociation constants (KB values) were determined in vitro on the guinea pig ileum and spontaneously beating atrium. The ileum was removed and incubated in Krebs-Henseleit solution in an organ bath. Contractions were produced by means of increasing concentrations of methacholine (M) so that a full concentration-activity curve could be plotted. Then M was washed out, the test substance was added and kept in contact for 30 minutes and again a concentration-activity curve was plotted with M. The dissociation constant was calculated according to Arunlakshana and Schild (Brit. J. Pharmacol. 14, 48, 1959) from the dosage ratio (DR), i.e. the extent of displacement of the concentration-activity curve.
In the isolated, spontaneously beating right atrium M reduced the heart rate as a function of the concentration. This effect was stopped by the addition of an antimuscarinic. Dissociation constants for the muscarinic receptors of the atrium were obtained in the same way as described above. A comparison of the dissociation constants measured in the two different tissues made it possible to identify cardioselective substances.

M2 (vagal bradycardia) = target: T5, M2 (vagal bradycardia) (Rattus norvegicus, UniProt P10980); assay: M1/M2 selectivity in the rat: inhibition of vagally stimulated bradycardia (M2); format: in vivo, male THOM rats; details: iv, 5 min, read-out: M2 activity (rat) ED50
T5 construct: The bradycardia produced by vagus stimulation; from tissue; host or cells: whole animal (male THOM rats), heart
T5 sequence (P10980 1-466): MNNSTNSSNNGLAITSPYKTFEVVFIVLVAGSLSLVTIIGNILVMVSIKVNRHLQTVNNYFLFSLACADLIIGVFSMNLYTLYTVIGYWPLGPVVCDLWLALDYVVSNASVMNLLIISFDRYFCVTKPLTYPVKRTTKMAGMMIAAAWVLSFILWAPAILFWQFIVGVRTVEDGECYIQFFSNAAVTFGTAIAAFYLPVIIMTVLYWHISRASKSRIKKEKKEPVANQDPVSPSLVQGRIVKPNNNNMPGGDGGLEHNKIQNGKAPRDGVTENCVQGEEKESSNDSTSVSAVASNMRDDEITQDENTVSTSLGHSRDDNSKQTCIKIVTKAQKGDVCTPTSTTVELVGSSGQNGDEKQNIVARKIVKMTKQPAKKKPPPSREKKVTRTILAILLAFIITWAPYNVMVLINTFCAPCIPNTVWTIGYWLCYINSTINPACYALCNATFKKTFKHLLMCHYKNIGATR
Procedure: The method used was described by Hammer and Giachetti (Life Sciences 31, 2991-2998 (1982)). 5 minutes after intravenous injection of increasing doses of the substance, either the right vagus was electrically stimulated (frequency: 25 Hz; pulse width: 2 ms; duration of stimulus: 30 s; number of volts: supramaximal) or 0.3 mg/kg of McN-A-343 was injected intravenously into male THOM rats. The bradycardia produced by vagus stimulation and the increase in blood pressure produced by McN-A-343 were measured.

[5] = target: T6, muscarinic receptors, heart (Rattus norvegicus, UniProt P10980); assay: Receptor bonding test in vitro, heart (displacement of 3H-N-methylscopolamine); format: binding, Sprague-Dawley rats; details: 0.3 nmolar 3H-NMS, 30° C., 45 min, heart
T6 construct: After removal of the heart and submandibular gland; from tissue; host or cells: whole heart of male Sprague-Dawley rats, homogenate
T6 sequence (P10980 1-466): T5 sequence (P10980 1-466)

salivation = assay: Salivation-inhibiting effect on the rat (pilocarpine); format: in vivo, male THOM rats; details: Rattus norvegicus, iv, read-out: Salivation inhibition (rat) ED50
Procedure: The secretion of saliva was triggered by subcutaneous administration of 2 mg/kg of pilocarpine. The saliva was soaked up with blotting paper and the area occupied by the saliva was determined by planimetry every 5 minutes. The dosage of substance which reduced the volume of saliva by 50% was determined graphically.

[6] = target: T7, muscarinic receptors, heart atrium (Rattus norvegicus, UniProt P10980); assay: Receptor bonding test in vivo, heart atrium (3H-NMS); design: species or system female rats; details: rat, iv, 0.5 h, read-out: ID50 Heart Atrium
T7 construct: from tissue; host or cells: heart (atrium, ventricle) of female rats, labelled in vivo
T7 sequence (P10980 1-466): T5 sequence (P10980 1-466)
Procedure: as §1

[7] = test system: muscarinic receptors, bronchi; assay: Receptor bonding test in vivo, bronchi (3H-NMS); design: species or system female rats; details: in vivo binding, i.v., rat, 113 ng/kg 3H-NMS; 30 min
Procedure: as §1

[8] = target: T8, muscarinic receptors, heart ventricle (Rattus norvegicus, UniProt P10980); assay: Receptor bonding test in vivo, heart ventricle (3H-NMS); design: species or system female rats; details: iv, 0.5 h, read-out: ID50 Heart Ventricle
T8 construct: the heart, bronchi and lachrymal glands were removed; from tissue; host or cells: heart (atrium, ventricle) of female rats, labelled in vivo
T8 sequence (P10980 1-466): T5 sequence (P10980 1-466)
Procedure: as §1

In the case of `CN(C)CC1CCCCN1CCCCNC(=O)N1c2ccccc2C(=O)Nc2cccnc21` (racemic) [Example 20, D,L-5,11-Dihydro-11-[[[4-[2-[(dimethylamino)methyl]-piperidin-1-yl]butyl]amino]carbonyl]-6H-pyrido[2,3-b][1,4]benzodiazepin-6-one], the solubility in water (Solubility in water) is reported as “soluble in water”.

In the case of `CCN(CC)CC1CCCCN1CCCNC(=O)N1c2ccccc2NC(=O)c2ccccc21` (stereo not drawn) [Example 8, 5-[[[3-[2-[(Diethylamino)methyl]-piperidin-1-yl]propyl]amino]carbonyl]-5,10-dihydro-11H-dibenzo[b,e][1,4]diazepin-11-one], the solubility in water (Solubility in water) is reported as “Soluble in water”.

In the case of `Cl.O=C1Nc2cccnc2N(C(=O)NCCN2CCCCC2CN2CCCCC2)c2ccccc21` (stereo not drawn) [Example 39, 5,11-Dihydro-11-[[[2-[2-[(piperidin-1-yl)methyl]-piperidin-1-yl]ethyl]amino]carbonyl]-6H-pyrido[2,3-b][1,4]benzodiazepin-6-one hydrochloride], the solubility in water (Solubility in water) is reported as “soluble in water”.

Compound `CCN(CC)CC1CCCCN1CC(=O)N1c2ccccc2C(=O)Nc2cccnc21` (stereo not drawn) [Substance X, 11-[[2-[(diethylamino)methyl]-piperidin-1-yl]acetyl]-5,11-dihydro-6H-pyrido[2,3-b][1,4]benzodiazepin-6-one, reference compound] has an IC50 [1] of 5 µM, an ED50 [2] of over 30 mg/kg and an ED50 ([3]; i.v., 50% reduction in blood pressure rise by 0.3 mg/kg McN-A-343, read-out: M1 activity (rat) ED50) of 0.988 mg/kg. It also gave a Kb ([4]; guinea pig spontaneously beating atrium, methacholine, 30 min contact, read-out: KB Heart (dissociation constant)) of 0.105 µM, an ED50 (M2 (vagal bradycardia); i.v., 50% reduction in vagal bradycardia) of 0.16 mg/kg and an IC50 [5] of 0.15 µM.

With `CN1CCN(CC(=O)N2c3ccccc3C(=O)Nc3cccnc32)CC1` [Substance Y, 5,11-dihydro-11-[(4-methyl-piperazin-1-yl)acetyl]-6H-pyrido[2,3-b][1,4]benzodiazepin-6-one, reference compound] the Kb [4] was 0.24 µM and the ED50 (salivation) was 0.084 mg/kg.

For `CN1C2CCC1CC(OC(=O)C(CO)c1ccccc1)C2` (stereo not drawn) [Substance Z, atropine, reference compound], the ED50 [2] was 0.2 mg/kg, the ED50 [6] was 0.08 mg/kg and the ED50 ([3]; read-out: M1 activity (rat) ED50) was 0.016 mg/kg. The Kb [4] was 0.00141 µM, the “ID50 Bronchi” value [7] was 0.1 mg/kg and the ED50 (M2 (vagal bradycardia)) was 0.004 mg/kg. The ED50 [8] was 0.03 mg/kg.
